The values below come from PubChem BioAssay AID272 (DTP/NCI, 2004).

Where “and” joins values, the source holds several entries; their conditions need not be identical. Equal entries are not always repeated. Results filed as inconclusive are left out.

The experiment has as its system Lewis lung carcinoma i.m., BDF1 mice, T/C %. The experiment in a line: NCI In Vivo Anticancer Drug Screen. Data for tumor model Lewis Lung Carcinoma (intramuscular) in B6D2F1 (BDF1) mice. In short, it runs like this:
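Value is the ratio of a treated-group measurement (T) to the matching vehicle-control measurement (C), using either survival or tumour size in mice bearing transplanted tumours.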

Consider `C[C@]12C=CC(=O)C=C1CC[C@@H]1[C@@H]2C(=O)C[C@@]2(C)[C@H]1CC[C@]2(O)C(=O)CO`, for which the T/C by setting is: (endpoint: mean tumor weight, dose: 23.0 mg/kg/injection, schedule: Q01DX009 (ip), vehicle: water, higher = larger tumour) 70 % of control; (endpoint: mean tumor weight, dose: 25.0 mg/kg/injection, schedule: Q01DX011 (ip), vehicle: saline, higher = larger tumour) 45 % of control; (endpoint: mean tumor weight, dose: 39.0 mg/kg/injection, schedule: Q01DX009 (ip), vehicle: water, higher = larger tumour) 50 % of control; (endpoint: mean tumor weight, dose: 50.0 mg/kg/injection, schedule: Q01DX011 (ip), vehicle: saline, higher = larger tumour) 36 % of control; (endpoint: mean tumor weight, dose: 100.0 mg/kg/injection, schedule: Q01DX011 (ip), vehicle: saline, higher = larger tumour) 17 % of control; (endpoint: mean tumor weight, dose: 200.0 mg/kg/injection, schedule: Q01DX011 (ip), vehicle: saline, higher = larger tumour) 5 % of control. Besides, the T/C runs as follows: (endpoint: median survival time, dose: 23.0 mg/kg/injection, schedule: Q01DX009 (ip), vehicle: none, higher = longer survival) 109 % of control; (endpoint: median survival time, dose: 23.0 mg/kg/injection, schedule: Q01DX009 (ip), vehicle: water, higher = longer survival) 106 % of control; (endpoint: median survival time, dose: 25.0 mg/kg/injection, schedule: Q01DX011 (ip), vehicle: carboxymethylcellulose (CMC), higher = longer survival) 106 % of control and 113 % of control; (endpoint: median survival time, dose: 25.0 mg/kg/injection, schedule: Q01DX011 (ip), vehicle: saline, higher = longer survival) 112 % of control; (endpoint: median survival time, dose: 25.0 mg/kg/injection, schedule: Q01DX011 (ip), vehicle: water, higher = longer survival) 110 % of control; (endpoint: median survival time, dose: 39.0 mg/kg/injection, schedule: Q01DX009 (ip), vehicle: none, higher = longer survival) 104 % of control. Further, the T/C (endpoint: median survival time, dose: 39.0 mg/kg/injection, schedule: Q01DX009 (ip), vehicle: water, higher = longer survival) is 90 % of control; the T/C (endpoint: median survival time, dose: 50.0 mg/kg/injection, schedule: Q01DX011 (ip), vehicle: carboxymethylcellulose (CMC), higher = longer survival) was 115 % of control and 121 % of control; the T/C (endpoint: median survival time, dose: 50.0 mg/kg/injection, schedule: Q01DX011 (ip), vehicle: saline, higher = longer survival) was 104 % of control; the T/C (endpoint: median survival time, dose: 50.0 mg/kg/injection, schedule: Q01DX011 (ip), vehicle: water, higher = longer survival) was 108 % of control; the T/C (endpoint: median survival time, dose: 52.0 mg/kg/injection, schedule: Q01DX007 (sc), vehicle: saline, higher = longer survival) was 118 % of control and 119 % of control; the T/C (endpoint: median survival time, dose: 65.0 mg/kg/injection, schedule: Q01DX009 (ip), vehicle: none, higher = longer survival) is 95 % of control. Further, the T/C is, setting by setting: (endpoint: median survival time, dose: 86.0 mg/kg/injection, schedule: Q01DX007 (sc), vehicle: saline, higher = longer survival) 95 % of control and 113 % of control; (endpoint: median survival time, dose: 100.0 mg/kg/injection, schedule: Q01DX011 (ip), vehicle: saline, higher = longer survival) 102 % of control; (endpoint: median survival time, dose: 100.0 mg/kg/injection, schedule: Q01DX011 (ip), vehicle: water, higher = longer survival) 94 % of control; (endpoint: median survival time, dose: 108.0 mg/kg/injection, schedule: Q01DX009 (ip), vehicle: none, higher = longer survival) 46 % of control; (endpoint: median survival time, dose: 144.0 mg/kg/injection, schedule: Q01DX007 (sc), vehicle: saline, higher = longer survival) 105 % of control; (endpoint: median survival time, dose: 180.0 mg/kg/injection, schedule: Q01DX009 (ip), vehicle: none, higher = longer survival) 42 % of control. In addition, the T/C (endpoint: median survival time, dose: 240.0 mg/kg/injection, schedule: Q01DX007 (sc), vehicle: saline, higher = longer survival) was 68 % of control.
Regarding `CC(=O)C(O)N1C(=O)C=CC1=O` (centres undefined), the T/C was 88 % of control (endpoint: median survival time, dose: 0.62 mg/kg/injection, schedule: Q01DX011 (ip), vehicle: water, higher = longer survival); 120 % of control (endpoint: median survival time, dose: 1.25 mg/kg/injection, schedule: Q#A X022 (ip), vehicle: water, higher = longer survival); 123 % of control (endpoint: median survival time, dose: 2.5 mg/kg/injection, schedule: Q01DX011 (ip), vehicle: water, higher = longer survival); 120 % of control (endpoint: median survival time, dose: 2.5 mg/kg/injection, schedule: Q#A X022 (ip), vehicle: water, higher = longer survival); 113 % of control (endpoint: median survival time, dose: 5.0 mg/kg/injection, schedule: Q#A X022 (ip), vehicle: water, higher = longer survival).
Regarding `CC1CC(C)(O)CC(C(O)CC2CC(=O)NC(=O)C2)C1=O` (centres undefined), the T/C by setting is: (endpoint: mean tumor weight, dose: 0.1 mg/kg/injection, schedule: Q01DX011 (ip), vehicle: saline, higher = larger tumour) 56 % of control; (endpoint: median survival time, dose: 0.1 mg/kg/injection, schedule: Q01DX011 (ip), vehicle: saline, higher = longer survival) 90 % of control.
With `C[C@]12CC[C@H](OC3OC(CO)C(O)C(O)C3O)C[C@H]1CC[C@@H]1[C@@H]2CC[C@]2(C)[C@@H](C3=CCOC3=O)CC[C@]12O` (some centres undefined), where the note is “endpoint: median survival time, dose: 0.25 mg/kg/injection, schedule: Q01DX011 (ip), vehicle: saline, higher = longer survival”, the T/C is 110 % of control.
As for `CC(C(=O)O)N1C(=O)c2ccccc2C1=O` (centres undefined), the T/C runs as follows: (endpoint: median survival time, dose: 4.0 mg/kg/injection, schedule: Q01DX009 (ip), vehicle: water, higher = longer survival) 110 % of control; (endpoint: median survival time, dose: 8.0 mg/kg/injection, schedule: Q01DX009 (ip), vehicle: water, higher = longer survival) 107 % of control; (endpoint: median survival time, dose: 16.0 mg/kg/injection, schedule: Q01DX009 (ip), vehicle: water, higher = longer survival) 103 % of control; (endpoint: median survival time, dose: 32.0 mg/kg/injection, schedule: Q01DX009 (ip), vehicle: water, higher = longer survival) 108 % of control.
Take `O=[N+]([O-])c1ccc(N/N=C/CC(O)CO)c([N+](=O)[O-])c1` (centres undefined): the T/C was 57 % of control (endpoint: mean tumor weight (est.), dose: 100.0 mg/kg/injection, schedule: Q01DX011 (ip), vehicle: saline with Tween-80, higher = larger tumour); 52 % of control (endpoint: mean tumor weight (est.), dose: 200.0 mg/kg/injection, schedule: Q01DX011 (ip), vehicle: saline with Tween-80, higher = larger tumour); 92 % of control (endpoint: median survival time, dose: 100.0 mg/kg/injection, schedule: Q01DX011 (ip), vehicle: saline with Tween-80, higher = longer survival).
For `Nc1ncnc2c1ncn2C1OC(CO)C(O)C1O` (centres undefined), the T/C (endpoint: mean tumor weight (est.), dose: 200.0 mg/kg/injection, schedule: Q01DX011 (ip), vehicle: saline, higher = larger tumour) is 65 % of control; the T/C (endpoint: mean tumor weight (est.), dose: 400.0 mg/kg/injection, schedule: Q01DX011 (ip), vehicle: saline, higher = larger tumour) is 63 % of control; the T/C (endpoint: mean tumor weight (est.), dose: 600.0 mg/kg/injection, schedule: Q01DX011 (ip), vehicle: saline, higher = larger tumour) was 15 % of control; the T/C (endpoint: median survival time, dose: 200.0 mg/kg/injection, schedule: Q01DX011 (ip), vehicle: saline, higher = longer survival) was 119 % of control; the T/C (endpoint: median survival time, dose: 400.0 mg/kg/injection, schedule: Q01DX011 (ip), vehicle: saline, higher = longer survival) was 86 % of control.
In the case of `C[C@]12CC[C@@H]3c4ccc(O)cc4CC[C@H]3[C@@H]1C[C@@H](O)[C@@H]2O`, the T/C is 62 % of control (endpoint: mean tumor weight, dose: 3.13 mg/kg/injection, schedule: Q01DX011 (ip), vehicle: saline with Tween-80, higher = larger tumour); 108 % of control (endpoint: median survival time, dose: 0.78 mg/kg/injection, schedule: Q01DX011 (ip), vehicle: saline with Tween-80, higher = longer survival); 98 % of control (endpoint: median survival time, dose: 1.56 mg/kg/injection, schedule: Q01DX011 (ip), vehicle: saline with Tween-80, higher = longer survival); 112 % of control (endpoint: median survival time, dose: 3.12 mg/kg/injection, schedule: Q01DX011 (ip), vehicle: saline with Tween-80, higher = longer survival); 110 % of control (endpoint: median survival time, dose: 6.25 mg/kg/injection, schedule: Q01DX011 (ip), vehicle: saline with Tween-80, higher = longer survival).
Consider `COC(=O)[CH](C[N+](=O)[O-])[Hg][Cl]` (centres undefined), for which the T/C reads like this: (endpoint: mean tumor weight (est.), dose: 3.12 mg/kg/injection, schedule: Q01DX011 (ip), vehicle: saline, higher = larger tumour) 79 % of control; (endpoint: mean tumor weight (est.), dose: 6.25 mg/kg/injection, schedule: Q01DX011 (ip), vehicle: saline, higher = larger tumour) 69 % of control; (endpoint: mean tumor weight (est.), dose: 12.5 mg/kg/injection, schedule: Q01DX011 (ip), vehicle: saline, higher = larger tumour) 71 % of control; (endpoint: median survival time, dose: 3.12 mg/kg/injection, schedule: Q01DX011 (ip), vehicle: saline, higher = longer survival) 107 % of control; (endpoint: median survival time, dose: 6.25 mg/kg/injection, schedule: Q01DX011 (ip), vehicle: saline, higher = longer survival) 115 % of control; (endpoint: median survival time, dose: 12.5 mg/kg/injection, schedule: Q01DX011 (ip), vehicle: saline, higher = longer survival) 88 % of control.
Regarding `NC(=S)N/N=C/c1ccc(O)cn1`, the T/C is, setting by setting: (endpoint: mean tumor weight, dose: 5.0 mg/kg/injection, schedule: Q03HX024 (ip), vehicle: other, higher = larger tumour) 60 % of control; (endpoint: mean tumor weight, dose: 10.0 mg/kg/injection, schedule: Q03HX024 (ip), vehicle: other, higher = larger tumour) 46 % of control; (endpoint: mean tumor weight, dose: 50.0 mg/kg/injection, schedule: Q01DX009 (ip), vehicle: other, higher = larger tumour) 15 % of control; (endpoint: mean tumor weight, dose: 50.0 mg/kg/injection, schedule: Q01DX011 (ip), vehicle: other, higher = larger tumour) 18 % of control and 40 % of control; (endpoint: mean tumor weight, dose: 100.0 mg/kg/injection, schedule: Q01DX011 (ip), vehicle: other, higher = larger tumour) 17 % of control; (endpoint: mean tumor weight, dose: 200.0 mg/kg/injection, schedule: Q04DX003 (ip), vehicle: other, higher = larger tumour) 47 % of control. Further, the T/C was 28 % of control (endpoint: mean tumor weight, dose: 400.0 mg/kg/injection, schedule: Q04DX003 (ip), vehicle: other, higher = larger tumour); 108 % of control (endpoint: median survival time, dose: 5.0 mg/kg/injection, schedule: Q03HX024 (ip), vehicle: other, higher = longer survival); 112 % of control (endpoint: median survival time, dose: 10.0 mg/kg/injection, schedule: Q03HX024 (ip), vehicle: other, higher = longer survival); 113 % of control (endpoint: median survival time, dose: 50.0 mg/kg/injection, schedule: Q01DX011 (ip), vehicle: other, higher = longer survival); 170 % of control (endpoint: median survival time, dose: 100.0 mg/kg/injection, schedule: Q01DX009 (ip), vehicle: other, higher = longer survival); 103 % of control (endpoint: median survival time, dose: 100.0 mg/kg/injection, schedule: Q01DX011 (ip), vehicle: other, higher = longer survival). The T/C (endpoint: median survival time, dose: 200.0 mg/kg/injection, schedule: Q04DX003 (ip), vehicle: other, higher = longer survival) is 120 % of control.
